Earlier results as cited in patent US20060292651A1, “Protein labelling with oº-alkylguanine-dna alkyltrnsferase” (priority 2002, published 2006).

Target: T1, hAGT (Homo sapiens, UniProt P16455)
T1 sequence (P16455 1-207): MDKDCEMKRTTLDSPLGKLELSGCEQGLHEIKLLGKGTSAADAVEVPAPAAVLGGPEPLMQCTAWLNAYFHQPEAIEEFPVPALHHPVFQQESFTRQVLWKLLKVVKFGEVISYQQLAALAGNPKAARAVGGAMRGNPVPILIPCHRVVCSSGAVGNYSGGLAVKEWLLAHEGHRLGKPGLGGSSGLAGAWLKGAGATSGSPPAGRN
Conditions: reaction with hAGT

second order rate constant: approximately 10^3 sec^−1 M^−1
Structure (SMILES): Nc1nc(OCc2ccccc2)c2nc[nH]c2n1 [O^6-benzyl-guanine]
